# From US6737383B1, “Herbicidal oxadiazolidines” (priority 1999, dated 2004)
# Tests used:
# blackgrass = test: Test B pre/postemergence blackgrass; assay type: in vivo, Alopecurus myosuroides
# In short: (§1)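 Test chemicals in a non-phytotoxic solvent mixture with surfactant were sprayed preemergence onto planted seeds and postemergence onto plants 2 to 18 cm tall (1- to 4-leaf stage). After twelve to sixteen days in a greenhouse, injury was visually rated against untreated controls from 0 (no effect) to 10 (complete control).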
# surinam grass = test: Test B pre/postemergence surinam grass; assay type: in vivo, Brachiaria decumbens
# In short: as §1
# cocklebur = test: Test B pre/postemergence cocklebur; assay type: in vivo, Xanthium strumarium
# In short: as §1
# corn = test: Test B pre/postemergence corn; assay type: in vivo, Zea mays
# In short: as §1
# crabgrass = test: Test B pre/postemergence crabgrass; assay type: in vivo, Digitaria sanguinalis
# In short: as §1
# giant foxtail = test: Test B pre/postemergence giant foxtail; assay type: in vivo, Setaria faberii
# In short: as §1
# morningglory = test: Test B pre/postemergence morningglory; assay type: in vivo, Ipomoea hederacea
# In short: as §1
# pigweed = test: Test B pre/postemergence pigweed; assay type: in vivo, Amaranthus retroflexus
# In short: as §1
# rape = test: Test B pre/postemergence rape; assay type: in vivo, Brassica napus
# In short: as §1
# soybean = test: Test B pre/postemergence soybean; assay type: in vivo, Glycine max
# In short: as §1
# sugar beet = test: Test B pre/postemergence sugar beet; assay type: in vivo, Beta vulgaris
# In short: as §1
# velvetleaf = test: Test B pre/postemergence velvetleaf; assay type: in vivo, Abutilon theophrasti
# In short: as §1
# wheat = test: Test B pre/postemergence wheat; assay type: in vivo, Triticum aestivum
# In short: as §1
# wild oat = test: Test B pre/postemergence wild oat; assay type: in vivo, Avena fatua
# In short: as §1
# purple nutsedge = test: Test B pre/postemergence purple nutsedge; assay type: in vivo, Cyperus rotundus
# In short: as §1
# rice = test: Test B flood test rice; assay type: in vivo, Oryza sativa
# In short: (§2)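 Read-out is a visual response score from 0 (no effect) to 10 (complete control), assigned by comparison with untreated controls. Treatment was applied at the 2-leaf stage, and plants stayed in the greenhouse for twelve to sixteen days before scoring.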
# smallflower flatsedge = test: Test B flood test smallflower flatsedge; assay type: in vivo, Cyperus difformis
# In short: as §2
# duck salad = test: Test B flood test duck salad; assay type: in vivo, Heteranthera limosa
# In short: as §2
# bamyardgrass = test: Test B flood test barnyardgrass; assay type: in vivo, Echinochloa crus-galli
# In short: as §2
# [1] = Postemergence, Rate 62 g/ha, scale of 0 to 10, 0 is no effect, 10 is complete control
# [2] = Postemergence, Rate 125 g/ha, scale of 0 to 10 where 0 is no effect and 10 is complete control
# [3] = Postemergence, Rate 250 g/ha, scale of 0 to 10, 0 is no effect, 10 is complete control
# [4] = Postemergence, Rate 500 g/ha, scale of 0 to 10 where 0 is no effect and 10 is complete control
# [5] = Preemergence, Rate 62 g/ha, scale 0 to 10 (0 no effect, 10 complete control)
# [6] = Preemergence, Rate 125 g/ha, scale of 0 to 10 where 0 is no effect and 10 is complete control
# [7] = Preemergence, Rate 500 g/ha, scale of 0 to 10 where 0 is no effect and 10 is complete control
# [8] = Rate 62 g/ha, flood test species, Pre-emergence, visual evaluation after twelve to sixteen days
# [9] = Rate 125 g/ha, under heading Pre-emergence, flood test species, visual evaluation after twelve to sixteen days
# [10] = Rate 500 g/ha, Pre-emergence section of Table B, 0 to 10 scale (0 no effect, 10 complete control)
compound,measurement,setting,value
CCc1nc(C)c(C(C)n2c(=O)on(C(=O)N(c3ccc(F)cc3F)C(C)C)c2=O)s1 (stereo not shown) [Compound 589],Blackgrass plant response rating,blackgrass; [1],0
same,"Plant response rating, Blackgrass",blackgrass; [2],0
same,Blackgrass plant response rating,blackgrass; [3],2
same,"Plant response rating, Blackgrass",blackgrass; [4],3
same,Blackgrass plant response rating,blackgrass; [5],0
same,Blackgrass plant response rating,blackgrass; [6],0
same,Blackgrass plant response rating (0 to 10 scale),"blackgrass; Preemergence, Rate 250 g/ha",0
same,Blackgrass plant response rating,blackgrass; [7],0
same,B. signalgrass plant response rating,surinam grass; [1],0
same,"Plant response rating, B. signalgrass",surinam grass; [2],0
same,B. signalgrass plant response rating,surinam grass; [3],0
same,"Plant response rating, B. signalgrass",surinam grass; [4],3
same,B. signalgrass plant response rating,surinam grass; [5],0
same,B. signalgrass plant response rating,surinam grass; [6],0
same,"B. signalgrass plant response rating (0 to 10 scale, 0 is no effect, 10 is complete control)","surinam grass; Preemergence, Rate 250 g/ha",0
same,B. signalgrass plant response rating,surinam grass; [7],0
same,Cocklebur plant response rating,cocklebur; [1],0
same,"Plant response rating, Cocklebur",cocklebur; [2],0
same,Cocklebur plant response rating,cocklebur; [3],0
same,"Plant response rating, Cocklebur",cocklebur; [4],0
same,Cocklebur plant response rating,cocklebur; [5],0
same,Cocklebur plant response rating,cocklebur; [6],0
same,Cocklebur plant response rating (0 to 10 scale),"cocklebur; Preemergence, Rate 250 g/ha",0
same,Cocklebur plant response rating,cocklebur; [7],0
same,Corn plant response rating,corn; [1],0
same,"Plant response rating, Corn",corn; [2],0
same,Corn plant response rating,corn; [3],0
same,"Plant response rating, Corn",corn; [4],0
same,Corn plant response rating,corn; [5],0
same,Corn plant response rating,corn; [6],0
same,Corn plant response rating (0 to 10 scale),"corn; Preemergence, Rate 250 g/ha",0
same,Corn plant response rating,corn; [7],0
same,Crabgrass plant response rating,crabgrass; [1],0
same,"Plant response rating, Crabgrass",crabgrass; [2],0
same,Crabgrass plant response rating,crabgrass; [3],1
same,"Plant response rating, Crabgrass",crabgrass; [4],3
same,Crabgrass plant response rating,crabgrass; [5],0
same,Crabgrass plant response rating,crabgrass; [6],1
same,Crabgrass plant response rating,crabgrass; [7],9
same,Giant foxtail plant response rating,giant foxtail; [1],0
same,"Plant response rating, Giant foxtail",giant foxtail; [2],0
same,Giant foxtail plant response rating,giant foxtail; [3],0
same,"Plant response rating, Giant foxtail",giant foxtail; [4],3
same,Giant foxtail plant response rating,giant foxtail; [5],3
same,Giant foxtail plant response rating,giant foxtail; [6],9
same,Giant foxtail plant response rating,giant foxtail; [7],10
same,Morningglory plant response rating,morningglory; [1],3
same,"Plant response rating, Morningglory",morningglory; [2],3
same,Morningglory plant response rating,morningglory; [3],5
same,"Plant response rating, Morningglory",morningglory; [4],6
same,Morningglory plant response rating,morningglory; [5],0
same,Morningglory plant response rating,morningglory; [6],0
same,Morningglory plant response rating,morningglory; [7],0
same,"Plant response rating, Redroot pigweed",pigweed; [2],0
same,Redroot pigweed plant response rating,pigweed; [3],2
same,"Plant response rating, Redroot pigweed",pigweed; [4],2
same,Redroot pigweed plant response rating,pigweed; [5],0
same,Redroot pigweed plant response rating,pigweed; [6],0
same,Redroot pigweed plant response rating,pigweed; [7],0
same,Rape plant response rating,rape; [1],0
same,"Plant response rating, Rape",rape; [2],0
same,Rape plant response rating,rape; [3],0
same,"Plant response rating, Rape",rape; [4],2
same,Rape plant response rating,rape; [5],0
same,Rape plant response rating,rape; [6],0
same,Rape plant response rating,rape; [7],0
same,"Plant response rating, Soybean",soybean; [2],3
same,Soybean plant response rating,soybean; [3],3
same,"Plant response rating, Soybean",soybean; [4],3
same,Soybean plant response rating,soybean; [5],0
same,Soybean plant response rating,soybean; [6],0
same,Soybean plant response rating,soybean; [7],0
same,"Plant response rating, Sugarbeets",sugar beet; [2],0
same,Sugarbeets plant response rating,sugar beet; [3],0
same,"Plant response rating, Sugarbeets",sugar beet; [4],0
same,Sugarbeets plant response rating,sugar beet; [5],0
same,Sugarbeets plant response rating,sugar beet; [6],0
same,Sugarbeets plant response rating,sugar beet; [7],0
same,"Plant response rating, Velvetleaf",velvetleaf; [2],2
same,Velvetleaf plant response rating,velvetleaf; [3],5
same,"Plant response rating, Velvetleaf",velvetleaf; [4],5
same,Velvetleaf plant response rating,velvetleaf; [5],0
same,Velvetleaf plant response rating,velvetleaf; [6],0
same,Velvetleaf plant response rating,velvetleaf; [7],0
same,"Plant response rating, Wheat",wheat; [2],0
same,Wheat plant response rating,wheat; [3],0
same,"Plant response rating, Wheat",wheat; [4],0
same,Wheat plant response rating,wheat; [5],0
same,Wheat plant response rating,wheat; [6],0
same,Wheat plant response rating,wheat; [7],0
same,"Plant response rating, Wild oats",wild oat; [2],0
same,Wild oats plant response rating,wild oat; [3],0
same,Wild oats plant response rating,wild oat; [5],0
same,Wild oats plant response rating,wild oat; [6],0
same,Wild oats plant response rating,wild oat; [7],0
same,Nutsedge plant response rating,purple nutsedge; [1],0
same,"Plant response rating, Nutsedge",purple nutsedge; [2],0
same,Nutsedge plant response rating,purple nutsedge; [5],0
same,Nutsedge plant response rating,purple nutsedge; [6],0
same,Nutsedge plant response rating,purple nutsedge; [7],9
same,"Plant response rating, Rice (0 to 10 scale, 0 is no effect, 10 is complete control)",rice; [8],0
same,"Rice plant response rating (0 to 10 scale, 0 is no effect, 10 is complete control)",rice; [9],0
same,Rice plant response rating,rice; [10],0
same,"Plant response rating, S. Flatsedge (0 to 10 scale, 0 is no effect, 10 is complete control)",smallflower flatsedge; [8],0
same,"S. Flatsedge plant response rating (0 to 10 scale, 0 is no effect, 10 is complete control)",smallflower flatsedge; [9],0
same,S. Flatsedge plant response rating,smallflower flatsedge; [10],0
same,"Plant response rating, Ducksalad (0 to 10 scale, 0 is no effect, 10 is complete control)",duck salad; [8],0
same,"Ducksalad plant response rating (0 to 10 scale, 0 is no effect, 10 is complete control)",duck salad; [9],0
same,Ducksalad plant response rating,duck salad; [10],0
same,"Plant response rating, Barnyardgrass (0 to 10 scale, 0 is no effect, 10 is complete control)",bamyardgrass; [8],0
same,"Barnyardgrass plant response rating (0 to 10 scale, 0 is no effect, 10 is complete control)",bamyardgrass; [9],0
same,Barnyardgrass plant response rating,bamyardgrass; [10],0
